Measurements: patent publication US20230053688A1, “METHODS TO ALTER LATENCY IN EBV+ MALIGNANCIES” (Cornell University, priority 2020, published 2023)
Where a name gives a salt, the structure may show the parent alone. Read-outs that look alike come from different tables or passages of the source.

Tested on: LMP1 expression in Kem I cells
Assay: microbe, parasite or virus in culture
Assay type: cell-based, EBV
Conditions: for fold induction at 2.5 µM: human gammaherpesvirus 4, 48 h
[1] = read-out: Average LMP1 Fold Increase, Kem I cells, 2.5 uM, 48 hours, average of replicates 1 and 2
[2] = read-out: Replicate 1-LMP1 Fold Increase, Kem I cells, 2.5 uM, 48 hours, fold change in LMP1 transcript vs vehicle
[3] = read-out: Replicate 2-LMP1 Fold Increase, Kem I cells, 2.5 uM, 48 hours, fold change in LMP1 transcript vs vehicle
[4] = Kem I cells, 2.5 uM, 48 hours, average of replicates 1 and 2
[5] = Kem I cells, 2.5 uM, 48 hours, fold change in LMP1 transcript vs vehicle
[6] = Kem I cells, dose 2.5 uM, 48 hours, LMP1 transcript by in-well qRT-PCR, average of the two replicates
[7] = Kem I cells, dose 2.5 uM, 48 hours, LMP1 transcript by in-well qRT-PCR, screen replicate 1
[8] = Kem I cells, dose 2.5 uM, 48 hours, LMP1 transcript by in-well qRT-PCR, screen replicate 2

Compound: O=C(NC(Cc1cc(=O)[nH]c2ccccc12)C(=O)O)c1ccc(Cl)cc1 (stereo not drawn) [Rebamipide]
- fold induction at 2.5 µM [1]: 0.85
- fold induction at 2.5 µM [2]: 0.48
- fold induction at 2.5 µM [3]: 1.23

Compound: Cc1cc(Nc2ccc(NC(=O)c3ccc(Nc4ccnc5ccccc45)cc3)cc2)nc(N)n1 [SGI-1027]
- Average LMP1 Fold Increase [4]: 53.53
- Replicate 1-LMP1 Fold Increase [5]: 13.12
- Replicate 2-LMP1 Fold Increase [5]: 93.95

Compound: Cc1cccc(CC(=O)N2CCc3c2ccc(-c2cn(C)c4ncnc(N)c24)c3F)n1 [GSK2656157]
- Average LMP1 Fold Increase [4]: 0.71
- Replicate 1-LMP1 Fold Increase [5]: 0.58
- Replicate 2-LMP1 Fold Increase [5]: 0.84

Compound: Cc1cc(NC(=O)Nc2ccc(N(C)C)cc2)c2cc(F)cc(F)c2n1 [SB408124]
- Average LMP1 Fold Increase [4]: 0.67
- Replicate 1-LMP1 Fold Increase [5]: 0.81
- Replicate 2-LMP1 Fold Increase [5]: 0.53

Compound: COc1cc2c(cc1O)CC[C@@H]1[C@@H]2CC[C@]2(C)[C@@H](O)CC[C@@H]12 [2-Methoxyestradiol (2-MeOE2)]
- Average LMP1 Fold Increase [4]: 1.00
- Replicate 1-LMP1 Fold Increase [5]: 0.65
- Replicate 2-LMP1 Fold Increase [5]: 1.34

Compound: N#CC1(c2ccc(NC(=O)c3cccnc3NCc3ccncc3)cc2)CCCC1 [Apatinib]
- fold induction at 2.5 µM [1]: 0.87
- fold induction at 2.5 µM [2]: 1.23
- fold induction at 2.5 µM [3]: 0.5

Compound: Maraviroc
- Average LMP1 Fold Increase [4]: 1.08
- Replicate 1-LMP1 Fold Increase [5]: 0.44
- Replicate 2-LMP1 Fold Increase [5]: 1.72

Compound: C[C@@H](Oc1cc(-n2cnc3ccc(CN4CCN(C)CC4)cc32)sc1C(N)=O)c1ccccc1C(F)(F)F [GSK461364]
- Average LMP1 Fold Increase [4]: 1.62
- Replicate 1-LMP1 Fold Increase [5]: 1.73
- Replicate 2-LMP1 Fold Increase [5]: 1.50

Compound: VU 0364439
- Average LMP1 Fold Increase [6]: 0.90 fold
- Replicate 1-LMP1 Fold Increase [7]: 1.34 fold
- Replicate 2-LMP1 Fold Increase [8]: 0.45 fold

Compound: CC(C)(C)NC(=O)[C@H]1CC[C@H]2[C@@H]3CC[C@H]4NC(=O)C=C[C@]4(C)[C@H]3CC[C@]12C [Finasteride]
- fold induction at 2.5 µM [1]: 0.66
- fold induction at 2.5 µM [2]: 0.51
- fold induction at 2.5 µM [3]: 0.81

Compound: C=C1C[C@@H]2[C@H](CC[C@]3(C)C(=O)CC[C@@H]23)[C@@]2(C)C=CC(=O)C=C12 [Exemestane]
- fold induction at 2.5 µM [1]: 0.7
- fold induction at 2.5 µM [2]: 0.53
- fold induction at 2.5 µM [3]: 0.86

Compound: COc1ccc(COc2ccc(Cc3cnc(N)nc3N)cc2OC)cc1 [GW2580]
- Average LMP1 Fold Increase [4]: 0.49
- Replicate 1-LMP1 Fold Increase [5]: 0.50
- Replicate 2-LMP1 Fold Increase [5]: 0.48

Compound: Nc1ncnc2c1c(-c1cccc(OCc3ccccc3)c1)cn2C1CC(CN2CCCC2)C1 (stereo not drawn) [NVP-ADW742]
- Average LMP1 Fold Increase [4]: 0.40
- Replicate 1-LMP1 Fold Increase [5]: 0.27
- Replicate 2-LMP1 Fold Increase [5]: 0.53

Compound: O=C(NC[C@H]1CN(c2ccc(N3CCOCC3=O)cc2)C(=O)O1)c1ccc(Cl)s1 [Rivaroxaban]
- fold induction at 2.5 µM [1]: 0.14
- fold induction at 2.5 µM [2]: 0.08
- fold induction at 2.5 µM [3]: 0.2

Compound: CCc1c(C(=O)NCCc2ccc(N3CCCCC3)cc2)[nH]c2ccc(Cl)cc12 [Org 27569]
- Average LMP1 Fold Increase [4]: 0.51
- Replicate 1-LMP1 Fold Increase [5]: 0.49
- Replicate 2-LMP1 Fold Increase [5]: 0.53

Compound: FC(F)(F)c1ccc(/C=C/c2nc(COc3ccc(CCCCn4ccnn4)cc3)co2)cc1 [Mubritinib (TAK 165)]
- Average LMP1 Fold Increase: 0.68
- Replicate 1-LMP1 Fold Increase: 0.74
- Replicate 2-LMP1 Fold Increase: 0.62

Compound: CCC(=O)NCC[C@@H]1CCc2ccc3c(c21)CCO3 [Ramelteon]
- fold induction at 2.5 µM [1]: 0.33
- fold induction at 2.5 µM [2]: 0.45
- fold induction at 2.5 µM [3]: 0.22

Compound: O=C1C(=O)N(Cc2ccc(Cl)c(Cl)c2)c2ccccc21 [Apoptosis Activator 2]
- Average LMP1 Fold Increase [4]: 0.82
- Replicate 1-LMP1 Fold Increase [5]: 0.87
- Replicate 2-LMP1 Fold Increase [5]: 0.78

Compound: CCCCCCCCc1ccc(CCC(N)(CO)CO)cc1.Cl [Fingolimod (FTY720) HCl]
- Average LMP1 Fold Increase [4]: 0.69
- Replicate 1-LMP1 Fold Increase [5]: 0.33
- Replicate 2-LMP1 Fold Increase [5]: 1.06

Compound: CC(C)CC(=O)Nc1[nH]nc2c1CN(C(=O)C1CCN(C)CC1)C2(C)C [PHA-793887]
- fold induction at 2.5 µM [1]: 2.82
- fold induction at 2.5 µM [2]: 0.58
- fold induction at 2.5 µM [3]: 5.05

Compound: Clc1ccccc1CN1CCc2sccc2C1 [Ticlopidine HCl]
- fold induction at 2.5 µM (read-out: Average LMP1 Fold Increase, Kem I cells, dose 2.5 uM, 48 hours, LMP1 transcript by in-well qRT-PCR, average of the two replicates): 1.15
- fold induction at 2.5 µM (read-out: Replicate 1-LMP1 Fold Increase, Kem I cells, dose 2.5 uM, 48 hours, LMP1 transcript by in-well qRT-PCR, screen replicate 1): 0.52
- fold induction at 2.5 µM (read-out: Replicate 2-LMP1 Fold Increase, Kem I cells, dose 2.5 uM, 48 hours, LMP1 transcript by in-well qRT-PCR, screen replicate 2): 1.78

Compound: COC(=O)CCSCc1ccc(-c2onc(C)c2NC(=O)OC(C)c2ccccc2Cl)cc1 (stereo not drawn) [Ki16198]
- Average LMP1 Fold Increase [4]: 1.33
- Replicate 1-LMP1 Fold Increase [5]: 1.53
- Replicate 2-LMP1 Fold Increase [5]: 1.12

Compound: Cc1sc2c(c1C)C(c1ccc(Cl)cc1)=N[C@@H](CC(=O)Nc1ccc(O)cc1)c1nnc(C)n1-2 [OTX015]
- fold induction at 2.5 µM [1]: 0.63
- fold induction at 2.5 µM [2]: 0.14
- fold induction at 2.5 µM [3]: 1.12

Compound: CNC(=O)c1ccc2cc([C@@]3(O)CCn4cncc43)ccc2c1 [TAK-700 (Orteronel)]
- Average LMP1 Fold Increase [6]: 0.90 fold
- Replicate 1-LMP1 Fold Increase [7]: 0.75 fold
- Replicate 2-LMP1 Fold Increase [8]: 1.06 fold

Compound: Cc1cccc(-c2[nH]ncc2-c2ccc3ncccc3n2)n1 [RepSox]
- Average LMP1 Fold Increase: 0.64
- Replicate 1-LMP1 Fold Increase: 0.96
- Replicate 2-LMP1 Fold Increase: 0.33

Compound: CCCC(=O)Nc1cccc(NC(=O)c2ccccc2Br)c1 [ML161]
- Average LMP1 Fold Increase [4]: 0.83
- Replicate 1-LMP1 Fold Increase [5]: 1.11
- Replicate 2-LMP1 Fold Increase [5]: 0.54

Compound: O=C(NCc1cccc(O)c1)Nc1nc(-c2ccncc2)cs1 [RKI-1447]
- Average LMP1 Fold Increase [4]: 0.54
- Replicate 1-LMP1 Fold Increase [5]: 0.75
- Replicate 2-LMP1 Fold Increase [5]: 0.33

Compound: O=C(/C=C\n1cnc(-c2cc(C(F)(F)F)cc(C(F)(F)F)c2)n1)N1CC(F)(F)C1 [KPT-276]
- Average LMP1 Fold Increase [4]: 1.94
- Replicate 1-LMP1 Fold Increase [5]: 0.97
- Replicate 2-LMP1 Fold Increase [5]: 2.91

Compound: CNC(=O)[C@H](Cc1c[nH]c2ccccc12)NC(=O)[C@@H](CC(=O)NO)CC(C)C [Ilomastat (GM6001, Galardin)]
- Average LMP1 Fold Increase [4]: 0.08
- Replicate 1-LMP1 Fold Increase [5]: 0.05
- Replicate 2-LMP1 Fold Increase [5]: 0.12

Compound: O=C(O)c1cc2cccc([N+](=O)[O-])c2[nH]1 [CRT0044876]
- Average LMP1 Fold Increase [4]: 0.44
- Replicate 1-LMP1 Fold Increase [5]: 0.55
- Replicate 2-LMP1 Fold Increase [5]: 0.33

Compound: NC(=O)Nc1cc(-c2cccc(F)c2)sc1C(=O)N[C@H]1CCCNC1 [AZD7762]
- Average LMP1 Fold Increase [4]: 5.84
- Replicate 1-LMP1 Fold Increase [5]: 9.74
- Replicate 2-LMP1 Fold Increase [5]: 1.94

Compound: O=[N+]([O-])c1ccc2c(c1)S(=O)(=O)C=C2 [Stattic]
- Average LMP1 Fold Increase [4]: 26.57
- Replicate 1-LMP1 Fold Increase [5]: 50.36
- Replicate 2-LMP1 Fold Increase [5]: 2.79

Compound: Cl.NC(=O)c1cnc(N[C@@H]2CCCC[C@@H]2N)nc1Nc1cccc(-n2nccn2)c1 [PRT062607(P505-15, BIIB057) HCl]
- Average LMP1 Fold Increase [4]: 0.54
- Replicate 1-LMP1 Fold Increase [5]: 0.25
- Replicate 2-LMP1 Fold Increase [5]: 0.83

Compound: O=C(NOCC1CC1)c1ccc(F)c(F)c1Nc1ccc(I)cc1Cl [PD184352 (CI-1040)]
- Average LMP1 Fold Increase [4]: 0.66
- Replicate 1-LMP1 Fold Increase [5]: 0.65
- Replicate 2-LMP1 Fold Increase [5]: 0.66

Compound: NC(=O)c1ccc(I)c([N+](=O)[O-])c1 [Iniparib (BSl-201)]
- Average LMP1 Fold Increase [4]: 0.63
- Replicate 1-LMP1 Fold Increase [5]: 0.51
- Replicate 2-LMP1 Fold Increase [5]: 0.76

Compound: COc1cccc(C=NCCN=Cc2cccc(OC)c2[O-])c1[O-].[Cl-].[Mn+3] [EUK 134]
- Average LMP1 Fold Increase [4]: 0.90
- Replicate 1-LMP1 Fold Increase [5]: 0.85
- Replicate 2-LMP1 Fold Increase [5]: 0.95

Compound: CCCN[C@H]1CCc2nc(N)sc2C1 [Pramipexole]
- fold induction at 2.5 µM [1]: 0.93
- fold induction at 2.5 µM [2]: 0.6
- fold induction at 2.5 µM [3]: 1.27

Compound: Cc1cc2c(C(C)C)c(O)c(O)c(C=O)c2c(O)c1-c1c(C)cc2c(C(C)C)c(O)c(O)c(C=O)c2c1O [AT101]
- fold induction at 2.5 µM [1]: 1.04
- fold induction at 2.5 µM [2]: 0.51
- fold induction at 2.5 µM [3]: 1.58

Compound: COc1nc(C)cnc1NS(=O)(=O)c1cccnc1-c1ccc(-c2nnco2)cc1 [Zibotentan (ZD4054)]
- Average LMP1 Fold Increase [6]: 0.77 fold
- Replicate 1-LMP1 Fold Increase [7]: 0.57 fold
- Replicate 2-LMP1 Fold Increase [8]: 0.97 fold

Compound: O=C(/C=C/c1cccc(S(=O)(=O)Nc2ccccc2)c1)NO [Belinostat (PXD101)]
- Average LMP1 Fold Increase [4]: 51.63
- Replicate 1-LMP1 Fold Increase [5]: 17.40
- Replicate 2-LMP1 Fold Increase [5]: 85.87

Compound: O=C(Nc1cc(C(F)(F)F)cc(C(F)(F)F)c1)c1cc(Cl)ccc1O [IMD 0354]
- fold induction at 2.5 µM [1]: 0.62
- fold induction at 2.5 µM [2]: 0.74
- fold induction at 2.5 µM [3]: 0.5

Compound: CC(=O)Nc1cccc2c1c(Sc1ccc(Cl)cc1)c(C)n2CC(=O)O [AZD1981]
- Average LMP1 Fold Increase [4]: 0.80
- Replicate 1-LMP1 Fold Increase [5]: 1.13
- Replicate 2-LMP1 Fold Increase [5]: 0.46

Compound: I-BET151 (GSK1210151A)
- Average LMP1 Fold Increase [4]: 1.39
- Replicate 1-LMP1 Fold Increase [5]: 1.41
- Replicate 2-LMP1 Fold Increase [5]: 1.38

Compound: CCCCCCCCCCCCCCCCn1cc[n+](Cc2ccccc2)c1C.[I-] [NH125]
- Average LMP1 Fold Increase [4]: 0.70
- Replicate 1-LMP1 Fold Increase [5]: 0.94
- Replicate 2-LMP1 Fold Increase [5]: 0.46

Compound: CC(C)N(CC[C@H](c1ccccc1)c1cc(CO)ccc1O)C(C)C
- Average LMP1 Fold Increase [4]: 0.36
- Replicate 1-LMP1 Fold Increase [5]: 0.49
- Replicate 2-LMP1 Fold Increase [5]: 0.23
